According to ChEMBL document CHEMBL5550215, “Discovery of Novel Imidazo[1,2-a]pyridine-Based HDAC6 Inhibitors as an Anticarcinogen with a Cardioprotective Effect” (J Med Chem, 2024):
Active and inactive are the calls of the source. The calls are words filed in the database; no cut-off is given here.

Columns and labels:
[1] = molecular target: T1, Protein deacetylase HDAC6 (Mus musculus) (UniProt Q9Z2V5); assay: In vivo inhibition of HDAC6 in C57BL/6 mouse xenografted with MGC-803 cells assessed as effect on acetylated H3 level at 25 to 50 mg/kg, ip by Western blot analysis; type: functional, organism-based; details: dose 25-50 mg/kg
T1 sequence (whole entry): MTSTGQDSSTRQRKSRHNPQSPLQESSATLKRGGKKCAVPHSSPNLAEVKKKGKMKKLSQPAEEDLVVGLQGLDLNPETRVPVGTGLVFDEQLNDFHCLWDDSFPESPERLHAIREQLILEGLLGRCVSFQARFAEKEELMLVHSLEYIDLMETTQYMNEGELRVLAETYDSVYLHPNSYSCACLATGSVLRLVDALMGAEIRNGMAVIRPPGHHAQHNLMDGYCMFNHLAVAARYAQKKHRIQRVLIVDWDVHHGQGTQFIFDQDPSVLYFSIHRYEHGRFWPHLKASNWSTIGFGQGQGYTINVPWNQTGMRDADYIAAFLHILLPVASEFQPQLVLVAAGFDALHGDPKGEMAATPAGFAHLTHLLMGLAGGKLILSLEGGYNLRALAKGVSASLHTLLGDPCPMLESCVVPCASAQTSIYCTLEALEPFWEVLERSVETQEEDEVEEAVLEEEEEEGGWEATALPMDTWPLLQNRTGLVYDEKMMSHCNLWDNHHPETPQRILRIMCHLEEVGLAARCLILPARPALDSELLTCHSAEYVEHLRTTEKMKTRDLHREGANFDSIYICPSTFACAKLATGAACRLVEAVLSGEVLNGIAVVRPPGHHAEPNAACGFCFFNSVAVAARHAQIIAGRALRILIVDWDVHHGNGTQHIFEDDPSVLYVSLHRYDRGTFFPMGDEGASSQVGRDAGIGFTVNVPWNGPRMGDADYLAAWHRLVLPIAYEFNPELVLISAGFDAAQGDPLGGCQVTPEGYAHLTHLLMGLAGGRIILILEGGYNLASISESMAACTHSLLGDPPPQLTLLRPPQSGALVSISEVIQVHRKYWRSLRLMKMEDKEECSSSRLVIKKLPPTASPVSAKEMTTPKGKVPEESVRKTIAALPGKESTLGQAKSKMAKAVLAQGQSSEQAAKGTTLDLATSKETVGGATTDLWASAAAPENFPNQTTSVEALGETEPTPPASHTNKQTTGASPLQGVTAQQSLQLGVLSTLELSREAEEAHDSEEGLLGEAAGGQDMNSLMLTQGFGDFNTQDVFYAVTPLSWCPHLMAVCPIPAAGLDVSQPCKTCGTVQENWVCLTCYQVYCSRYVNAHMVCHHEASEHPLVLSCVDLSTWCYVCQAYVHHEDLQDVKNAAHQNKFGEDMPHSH

HGC-27 = assay: Antiproliferative activity against human HGC-27 cells assessed as inhibition of cell growth by MTT assay
MGC-803 [2] = assay: Induction of apoptosis in human MGC-803 cells measured after 48 hrs by Annexin V-EGFP and PI staining based flow cytometry analysis; type: functional, cell-based; details: dose <= 2.0 µM
SMMC-7721 = assay: Antiproliferative activity against human SMMC-7721 cells assessed as inhibition of cell growth by MTT assay
[3] = Toxicity in C57BL/6 mouse assessed as appearance of inflammatory cell infiltration at 25 to 50 mg/kg, ip by H and E staining based analysis; type: organism-based; details: in vivo, dose 25-50 mg/kg
MGC-803 [4] = assay: Antiproliferative activity against human MGC-803 cells assessed as inhibition of cell growth by MTT assay
MGC-803 [5] = assay: Induction of apoptosis in human MGC-803 cells assessed as viable cells at 2 uM measured after 48 hrs by Annexin V-EGFP and PI staining based flow cytometry analysis (reference value: 92.3%); type: functional; details: read-out: Activity
TE-1 = assay: Antiproliferative activity against human TE-1 cells assessed as inhibition of cell growth by MTT assay
MGC-803 [6] = assay: Induction of apoptosis in human MGC-803 cells assessed as early apoptotic cells at 1 uM measured after 48 hrs by Annexin V-EGFP and PI staining based flow cytometry analysis (reference value: 0.66%); type: functional
H9c2 [7] = assay: Cardioprotective activity in H2O2 induced myocardial injury in rat H9c2 cells assessed as appearance of defined nuclear boundaries at 2 to 8 uM; type: functional, cell-based; details: dose 2-8 µM
[8] = Toxicity in C57BL/6 mouse assessed as lesions in myocardial tissue at 25 to 50 mg/kg, ip by H and E staining based analysis; type: organism-based; details: in vivo, dose 25-50 mg/kg
[9] = AUC (0 to infinity) in male Sprague-Dawley rat at 7 mg/kg,iv measured upto 8 hrs by UPLC-MS/MS analysis; type: ADME, organism-based; details: in vivo
[10] = AUClast in male Sprague-Dawley rat at 7 mg/kg,po measured upto 8 hrs by UPLC-MS/MS analysis; type: ADME, organism-based; details: in vivo
MGC-803 [11] = assay: Induction of apoptosis in human MGC-803 cells assessed as decrease in Bcl-2 expression by Western blot analysis; type: functional, cell-based; details: dose <= 2.0 µM
H9c2 [12] = assay: Cardioprotective activity in H2O2 induced myocardial injury in rat H9c2 cells assessed as effect on LC3 level at upto 8 uM by q-PCR analysis; type: functional, cell-based
[13] = Tmax in male Sprague-Dawley rat at 7 mg/kg,po measured upto 8 hrs by UPLC-MS/MS analysis; type: ADME, organism-based; details: in vivo
MGC-803 [14] = assay: Induction of apoptosis in human MGC-803 cells assessed as necrotic cells at 0.5 uM measured after 48 hrs by Annexin V-EGFP and PI staining based flow cytometry analysis (reference value: 3.90%); type: functional
H9c2 [15] = assay: Cardioprotective activity in H2O2 induced myocardial injury in rat H9c2 cells assessed as effect on HO-1 level at upto 8 uM by q-PCR analysis; type: functional, cell-based
[16] = AUC (0 to infinity) in male Sprague-Dawley rat at 7 mg/kg,po measured upto 8 hrs by UPLC-MS/MS analysis; type: ADME, organism-based; details: in vivo
Mus musculus [17] = assay: Cardioprotective activity against myocardial ischemia/reperfusion induced C57BL/6J mouse model assessed as effect on infarct size of mouse heart at 2.5 to 10 mg/kg by TTC staining based analysis; type: functional, organism-based; details: dose 2.5-10 mg/kg
SGC-7901 = assay: Antiproliferative activity against human SGC-7901 cells assessed as inhibition of cell growth by MTT assay
H9c2 [18] = assay: Cardioprotective activity against H2O2 induced myocardial damage in rat H9c2 cells harbouring Ad.GFP assessed as increase in cell viability at 8 uM by MTT assay; type: functional, cell-based
H9c2 [19] = assay: Cardioprotective activity against H2O2 induced myocardial damage in rat H9c2 cells harbouring Ad.GFP assessed as decrease in LDH leakage rate at 8 uM by absorbance based analysis; type: functional, cell-based
MGC-803 [20] = assay: Induction of apoptosis in human MGC-803 cells assessed as late apoptotic cells at 2 uM measured after 48 hrs by Annexin V-EGFP and PI staining based flow cytometry analysis (reference value: 3.16%); type: functional
Mus musculus [21] = assay: Cardioprotective activity against myocardial ischemia/reperfusion induced C57BL/6J mouse model assessed as reduction in IL-1 beta expression at 2.5 to 10 mg/kg; type: functional, organism-based; details: dose 2.5-10 mg/kg

**Q.** With O=C(NO)c1ccc(CNC(=O)c2cc(-c3ccc(F)cc3)cn3ccnc23)cc1 as the molecule, how does the inhibition [1] read?
**A.** Active

**Q.** And the IC50 (HGC-27)?
**A.** 2800 nM

**Q.** And the Activity (MGC-803 [2])?
**A.** Dose-Dependent Effect

**Q.** And the IC50 (SMMC-7721)?
**A.** 2740 nM

**Q.** And the Activity [3]?
**A.** Non-Toxic

**Q.** What about the IC50 (MGC-803 [4]) of the same molecule?
**A.** 950 nM

**Q.** And the viability at 2 µM (MGC-803 [5])?
**A.** 70.1%

**Q.** And the IC50 (TE-1)?
**A.** 4500 nM

**Q.** And the Activity (MGC-803 [6])?
**A.** 0.48%

**Q.** And the Activity (H9c2 [7])?
**A.** Active

**Q.** And the Activity [8]?
**A.** Non-Toxic

**Q.** What about the AUC(0-inf) [9] of the same molecule?
**A.** 868 ng·h/mL

**Q.** And the AUC(0-t) at 8 h [10]?
**A.** 54.2 ng·h/mL

**Q.** And the Activity (MGC-803 [11])?
**A.** Dose-Dependent Effect

**Q.** What about the Activity (H9c2 [12]) of the same molecule?
**A.** inactive

**Q.** What about the Tmax [13] of the same molecule?
**A.** 1 h

**Q.** And the Activity (MGC-803 [14])?
**A.** 5.97%

**Q.** And the Activity (H9c2 [15])?
**A.** inactive

**Q.** And the AUC(0-inf) [16]?
**A.** 105 ng·h/mL

**Q.** What about the Activity (Mus musculus [17]) of the same molecule?
**A.** inactive

**Q.** What about the IC50 (SGC-7901) of the same molecule?
**A.** 8340 nM

**Q.** And the Activity (H9c2 [18])?
**A.** Active

**Q.** And the Activity (H9c2 [19])?
**A.** Active

**Q.** What about the Activity (MGC-803 [20]) of the same molecule?
**A.** 24.2%

**Q.** And the Activity (Mus musculus [21])?
**A.** Active
